Converted amounts (≈) assume the structure as drawn. The source made the active and inactive calls. No cut-off for these calls is given here.
Legend:
Escherichia coli [1] = assay: Antibacterial activity against gentamicin-treated internalized Escherichia coli isolate HM615 in mouse J774A1 cells isolated from colonic mucosal biopsies of patient with Crohn's disease assessed as intracellular killing of bacteria at 10% compound Cmax after 3 hrs; format: functional, J774.A1
J774.A1 [2] = assay: Cytotoxicity against mouse J774A1 cells assessed as macrophage number at […] ug/ml after 3 hrs by total cell protein assay; format: cell-based; settings: j774.a1, 3 h
Escherichia coli [3] = assay: Antibacterial activity against Escherichia coli isolate HM95 isolated from ileal mucosal biopsies of patient with Crohn's disease after 24 hrs by Etest antibiotic concentration gradient method; format: functional; settings: isolate HM95, 24 h
Escherichia coli [4] = assay: Antibacterial activity against Escherichia coli isolate HM615 isolated from colonic mucosal biopsies of patient with Crohn's disease after 24 hrs by Etest antibiotic concentration gradient method; format: functional; settings: isolate HM615, 24 h
Escherichia coli [5] = assay: Antibacterial activity against Escherichia coli K-12 after 24 hrs by Etest antibiotic concentration gradient method; format: functional; settings: K-12, 24 h
Escherichia coli [6] = assay: Antibacterial activity against Escherichia coli isolate HM605 isolated from colonic mucosal biopsies of patient with Crohn's disease after 24 hrs by Etest antibiotic concentration gradient method; format: functional; settings: isolate HM605, 24 h
J774.A1 [7] = assay: Cytotoxicity against mouse J774A1 cells assessed as release of adenylate kinase at 100 ug/ml after 3 hrs […] relative to control; format: cell-based; settings: j774.a1, 3 h
Escherichia coli [8] = assay: Antibacterial activity against Escherichia coli isolate HM580 isolated from colonic mucosal biopsies of patient with Crohn's disease after 24 hrs by Etest antibiotic concentration gradient method; format: functional; settings: isolate HM580, 24 h
Escherichia coli [9] = assay: Antibacterial activity Escherichia coli isolate HM419 isolated from ileo-colonic mucosal biopsies of patient with Crohn's disease after 24 hrs by Etest antibiotic concentration gradient method; format: functional; settings: isolate HM419, 24 h
Escherichia coli [10] = assay: Antibacterial activity against mucosa-associated Escherichia coli isolate HM456 isolated from patient with irritable bowel syndrome or sporadic polyps after 24 hrs by Etest antibiotic concentration gradient method; format: functional; settings: isolate HM456, 24 h
Escherichia coli [11] = assay: Antibacterial activity against extracellular Escherichia coli isolate HM605 isolated from colonic mucosal biopsies of patient with Crohn's disease at 0.01 to 10 ug/ml after 3 hrs; format: functional, organism-based
Escherichia coli [12] = assay: Antibacterial activity against Escherichia coli isolates isolated from patients with Crohn's disease at 5 ug/disk by susceptibility testing disk method; format: functional
Escherichia coli [13] = assay: Antibacterial activity against mucosa-associated Escherichia coli isolate HM428 isolated from patient with irritable bowel syndrome or sporadic polyps after 24 hrs by Etest antibiotic concentration gradient method; format: functional; settings: isolate HM428, 24 h
Escherichia coli [14] = assay: Antibacterial activity against mucosa-associated Escherichia coli isolate HM454 isolated from patient with irritable bowel syndrome or sporadic polyps after 24 hrs by Etest antibiotic concentration gradient method; format: functional; settings: isolate HM454, 24 h
Escherichia coli [15] = assay: Antibacterial activity against gentamicin-treated internalized Escherichia coli isolate HM580 in mouse J774A1 cells isolated from colonic mucosal biopsies of patient with Crohn's disease assessed as intracellular killing of bacteria at 10% compound Cmax after 3 hrs; format: functional, J774.A1
Escherichia coli [16] = assay: Antibacterial activity against gentamicin-treated internalized Escherichia coli isolate HM605 in mouse J774A1 cells isolated from colonic mucosal biopsies of patient with Crohn's disease assessed as intracellular killing of bacteria at 10% compound Cmax after 3 hrs; format: functional, J774.A1
Escherichia coli [17] = assay: Antibacterial activity against gentamicin-treated internalized Escherichia coli isolate LF82 in mouse J774A1 cells isolated from chronic ileal lesions of patient with Crohn's disease assessed as intracellular killing of bacteria at 10% compound Cmax after 3 hrs; format: functional, J774.A1
Escherichia coli [18] = assay: Antibacterial activity against Escherichia coli isolate HM605 isolated from colonic mucosal biopsies of patient with Crohn's disease
Escherichia coli [19] = assay: Antibacterial activity Escherichia coli isolate HM413 isolated from ileo-colonic mucosal biopsies of patient with Crohn's disease after 24 hrs by Etest antibiotic concentration gradient method; format: functional; settings: isolate HM413, 24 h
Escherichia coli [20] = assay: Antibacterial activity against Escherichia coli isolate HM154 isolated from colonic mucosal biopsies of patient with Crohn's disease after 24 hrs by Etest antibiotic concentration gradient method; format: functional; settings: isolate HM154, 24 h
Escherichia coli [21] = assay: Antibacterial activity against gentamicin-treated internalized Escherichia coli isolate HM605 isolated from colonic mucosal biopsies of patient with Crohn's disease in mouse J774A1 cells assessed as intracellular killing of bacteria at […] ug/ml after 3 hrs; format: functional, J774.A1
[22] = Cmax in immunodeficiency virus-infected patient at 800 mg, po by high-pressure liquid chromatography; settings: human, in vivo
Escherichia coli [23] = assay: Antibacterial activity against Escherichia coli ATCC 25922 after 24 hrs by Etest antibiotic concentration gradient method; format: functional, organism-based
Escherichia coli [24] = assay: Antibacterial activity against gentamicin-treated internalized Escherichia coli isolate HM605 isolated from colonic mucosal biopsies of patient with Crohn's disease in mouse J774A1 cells assessed as intracellular killing of bacteria at 1.7 ug/ml after 3 hrs; format: functional, J774.A1
J774.A1 [25] = assay: Cytotoxicity against mouse J774A1 cells assessed as macrophage number at 1.7 ug/ml after 3 hrs by total cell protein assay; format: cell-based; settings: j774.a1, 3 h
[26] = Cmax in patient with Billroth-II gastrectomy at 250 mg, po; format: ADME, organism-based; design: dose 250 mg, route oral; settings: human, in vivo
Escherichia coli [27] = assay: Antibacterial activity against mucosa-associated Escherichia coli isolates isolated from patients with Crohn's disease by disk diffusion method; format: functional
[28] = Cmax in healthy human at 160 mg administered orally; settings: in vivo, po
Homo sapiens = organism: Homo sapiens; assay: Cmax in human; format: ADME, organism-based; settings: in vivo
Escherichia coli [29] = assay: Antibacterial activity against gentamicin-treated internalized Escherichia coli isolate HM605 in mouse J774A1 cells isolated from colonic mucosal biopsies of patient with Crohn's disease assessed as intracellular killing of bacteria at 18 ug/ml after 6 hrs; format: functional, organism-based; settings: J774.A1
Escherichia coli [30] = assay: Antibacterial activity against gentamicin-treated internalized Escherichia coli isolate HM605 in mouse J774A1 cells isolated from colonic mucosal biopsies of patient with Crohn's disease assessed as reduction in intracellular bacterial viability at 18 ug/ml after 24 hrs; format: functional, organism-based; settings: J774.A1
Escherichia coli [31] = assay: Antibacterial activity against gentamicin-treated internalized Escherichia coli isolate HM605 in mouse J774A1 cells isolated from colonic mucosal biopsies of patient with Crohn's disease assessed as intracellular killing of bacteria at 18 ug/ml after 3 hrs; format: functional, organism-based; settings: J774.A1

For CO[C@H]1/C=C/O[C@@]2(C)Oc3c(C)c(O)c4c(O)c(c(/C=N/N5CCN(C)CC5)c(O)c4c3C2=O)NC(=O)/C(C)=C\C=C\[C@H](C)[C@H](O)[C@@H](C)[C@@H](O)[C@@H](C)[C@H](OC(C)=O)[C@@H]1C [RIFAMPIN], the Activity (Escherichia coli [1]) was 80.2%, the Activity (J774.A1 [2]) was 94.4 and the MIC (Escherichia coli [3]) was at least 4 µg/mL. It also gave an MIC (Escherichia coli [4]) of at least 4 µg/mL, an MIC (Escherichia coli [5]) of 3 µg/mL (≈ 3.65 µM) and an MIC (Escherichia coli [6]) of 6 µg/mL (≈ 7.29 µM). For the same compound, the Activity (J774.A1 [7]) was 90%, the MIC (Escherichia coli [8]) was at least 4 µg/mL and the MIC (Escherichia coli [9]) was at least 4 µg/mL. The MIC (Escherichia coli [10]) was at least 4 µg/mL, the Activity (Escherichia coli [11]) was “Active” and the Activity (Escherichia coli [12]) was 0%. For the same compound, the MIC (Escherichia coli [13]) was at least 4 µg/mL, the MIC (Escherichia coli [14]) was at least 4 µg/mL and the Activity (Escherichia coli [15]) was 35.8%. The Activity (Escherichia coli [16]) was 32.6%, the Activity (Escherichia coli [17]) was 32.8% and the MBC (Escherichia coli [18]) was 3 µg/mL (≈ 3.65 µM). The MIC (Escherichia coli [19]) was 2 µg/mL (≈ 2.43 µM), the MIC (Escherichia coli [20]) was at least 4 µg/mL and the Activity (Escherichia coli [21]) was 85.1%.

In the case of Cc1cc(NS(=O)(=O)c2ccc(N)cc2)no1 [SULFAMETHOXAZOLE], the Activity (Escherichia coli [1]) is reported as 71.5%, the Cmax [22] is reported as 40000 ng/mL and the MIC (Escherichia coli [6]) is reported as over 1020 µg/mL. The Activity (J774.A1 [7]) was 90%, the Activity (Escherichia coli [23]) was “Active” and the Activity (Escherichia coli [15]) was 58.7%. For the same compound, the Activity (Escherichia coli [16]) was 39.8% and the Activity (Escherichia coli [17]) was 63.2%.

Work on CN(C)[C@@H]1C(O)=C(C(N)=O)C(=O)[C@@]2(O)C(O)=C3C(=O)c4c(O)cccc4[C@@](C)(O)[C@H]3C[C@@H]12 [TETRACYCLINE] yielded an Activity (Escherichia coli [1]) of 69.6%, an MIC (Escherichia coli [3]) of at most 4 µg/mL and an MIC (Escherichia coli [4]) of at most 4 µg/mL. It also gave an Activity (Escherichia coli [24]) of 62.8%, an Activity (J774.A1 [25]) of 55.9 and an MIC (Escherichia coli [6]) of 2 µg/mL (≈ 4.5 µM). The Activity (J774.A1 [7]) was 90%, the MIC (Escherichia coli [8]) was at most 4 µg/mL and the Activity (Escherichia coli [23]) was “Active”. The MIC (Escherichia coli [9]) was at most 4 µg/mL, the MIC (Escherichia coli [10]) was at most 4 µg/mL and the Activity (Escherichia coli [11]) was “Active”. It also gave a Cmax [26] of 1700 ng/mL, an Activity (Escherichia coli [27]) of 67% and an MIC (Escherichia coli [13]) of at most 4 µg/mL. For the same compound, the Activity (Escherichia coli [15]) was 62.4%, the Activity (Escherichia coli [16]) was 44.8% and the Activity (Escherichia coli [17]) was 64.2%. It also gave an MBC (Escherichia coli [18]) of 1 µg/mL (≈ 2.25 µM), an MIC (Escherichia coli [19]) of at most 4 µg/mL and an MIC (Escherichia coli [20]) of at most 4 µg/mL.

COc1cc(Cc2cnc(N)nc2N)cc(OC)c1OC [TRIMETHOPRIM] gave an Activity (Escherichia coli [1]) of 61.7%, an MIC (Escherichia coli [3]) of at most 4 µg/mL and an MIC (Escherichia coli [4]) of at most 4 µg/mL. It also gave an MIC (Escherichia coli [6]) of over 32 µg/mL, a Cmax [28] of 2300 ng/mL and an Activity (J774.A1 [7]) of 90%. The MIC (Escherichia coli [8]) was at most 4 µg/mL, the Activity (Escherichia coli [23]) was “Active” and the MIC (Escherichia coli [9]) was at most 4 µg/mL. The MIC (Escherichia coli [10]) was at most 4 µg/mL, the Activity (Escherichia coli [11]) was “Active” and the Activity (Escherichia coli [27]) was 100%. The MIC (Escherichia coli [13]) was at most 4 µg/mL, the Activity (Escherichia coli [15]) was 46.9% and the Activity (Escherichia coli [16]) was 49.1%. For the same compound, the Activity (Escherichia coli [17]) was 50.2%, the MBC (Escherichia coli [18]) was 100 µg/mL (≈ 344 µM) and the MIC (Escherichia coli [19]) was at most 4 µg/mL. The MIC (Escherichia coli [20]) was at most 4 µg/mL.

With GENTAMICIN [listing 1 of 2 here] the Activity (J774.A1 [7]) was 90% and the Cmax (Homo sapiens) was 18000 ng/mL.

GENTAMICIN [listing 2 of 2 here] gave an Activity (Escherichia coli [29]) of 0.3%, an Activity (Escherichia coli [30]) of 54.8% and an Activity (Escherichia coli [27]) of 100%. The Activity (Escherichia coli [31]) was 7.8%.

Source: ChEMBL document CHEMBL1151474, “Replication of Colonic Crohn's Disease Mucosal Escherichia coli Isolates within Macrophages and Their Susceptibility to Antibiotics” (Antimicrob Agents Chemother, 2008)
